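Tested at 5 concentrations; 48 h exposure; 96-well plates; endpoints linearly interpolated, else capped at highest concentration. TGI is the concentration that stops growth completely.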
Assays:
Assay in all cases: NCI anticancer screen, dose series, 48 h
[1] = test system: NCI-H23 lung
[2] = test system: UACC-62 melanoma
[3] = test system: SK-MEL-5 melanoma
[4] = test system: IGROV1 ovarian
[5] = test system: HL-60(TB) leukemia
[6] = test system: HCT-15 colon
[7] = test system: HOP-62 NSCLC
[8] = test system: MALME-3M melanoma
[9] = test system: HCT-116 colon
[10] = test system: T-47D breast
[11] = test system: SNB-75 CNS
[12] = test system: MDA-MB-231 breast
[13] = test system: SK-OV-3 ovarian
[14] = test system: M14 melanoma

SMILES | TGI [1] [µM] | TGI [2] [µM] | TGI [3] [µM] | TGI [4] [µM] | TGI [5] [µM] | TGI [6] [µM] | TGI [7] [µM] | TGI [8] [µM] | TGI [9] [µM] | TGI [10] [µM] | TGI [11] [µM] | TGI [12] [µM] | TGI [13] [µM] | TGI [14] [µM]
CN1CN(c2ccccc2)C2(CCN(CCCSc3ccccc3NC(=O)/C=C/c3ccccc3)CC2)C1=O | 25.1 | 6.37 | 9.18 | 6.61 | 23.8 | 26.5 | 5.8 | 4.77 | 8.76 | > 59.7 | 22.8 | 3.32 | > 42.3 | 3.89
COC(=O)C(O)P(=O)(OC)OC (stereo unspecified) | > 100 | > 100 | > 100 | > 100 | > 100 | > 100 | > 100 | > 100 | > 100 | > 100 |  | > 100 | > 100 | > 100
O=c1[nH]c(=O)n(C2CC(O)C(CO)O2)cc1OCCCc1ccccc1 (stereo unspecified) | > 100 | > 100 | > 100 | > 100 | > 100 | > 100 | > 100 | > 100 | > 100 | > 100 | > 100 | > 100 | > 100 | > 100
CC(C)(C)N(Cc1ccc2c(c1)OCO2)C(=O)/C=C\S(=O)c1ccccc1 (stereo unspecified) | 8.79 | 13.6 | 12.9 | 13.3 | 7.6 | 13.2 | 17.7 | 13.9 | 7.84 | 14.3 | 15.1 | 9.75 | 9.38 | 8.2
CC(C)NC(=O)CN1CCN(C2=CC(=O)c3c(O)ccc(O)c3C2=O)CC1 | 24.3 | 13.3 | 7.78 | 28.4 | 5.99 | 45.3 | 32.3 | 4.41 | 9.79 | 24.7 | 32.6 | > 63.5 | 77.1 | 22.3
CC1=C2C(=O)[C@H]3[C@@H](CC=C4C[C@@H](O)CC[C@@]43C)[C@@H]2CC[C@]12O[C@@H]1C[C@H](C)CN[C@H]1[C@H]2C | > 58 | > 92.3 | > 61.9 | > 96.4 | > 65.5 | > 81.3 | > 55.2 | > 79.3 | > 68.5 | > 100 | > 54.4 | > 100 | > 57.3 | > 60.4
CC(C)C1(C)N=C(C(F)(F)F)c2cc(C(=O)C(F)(F)F)c3ccccc3c2N1 (stereo unspecified) | 8.12 | 15.3 | 25.9 | 3.28 | 23.3 | 14.1 | 18.5 | 12.7 | 11.8 | 11.4 | 7.96 | 11.2 | 30.2 | 18.2
CN(NC(=O)CCCl)C1=NCCN1 | > 100 | > 100 | > 100 | > 100 | > 100 | > 100 | > 100 | > 100 | > 100 | > 100 | > 100 | > 100 | > 100 | > 100

From PubChem BioAssay (NCI)
